{
  "source": "ChEMBL document CHEMBL5325432",
  "about": "“Systematic study of 1,2,3-triazolyl sterols for the development of new drugs against parasitic Neglected Tropical Diseases” (Eur J Med Chem, 2023)",
  "key": {"[1]": {"system": "Leishmania donovani", "assay": "Antileishmanial activity against Leishmania donovani S1 promastigotes assessed as parasite growth inhibition incubated for 72 hrs by Alamar blue assay", "type": "functional, organism-based", "conditions": "S1, 72 h"}, "[2]": {"system": "Trypanosoma brucei", "assay": "Antiparasitic activity against Trypanosoma brucei assessed as parasite growth inhibition incubated for 3 days by Alamar blue assay", "type": "functional, organism-based", "conditions": "72 h"}, "[3]": {"system": "Trypanosoma cruzi", "assay": "Antiparasitic activity against Trypanosoma cruzi epimastigotes assessed as parasite growth inhibition incubated for 14 days by Alamar blue assay", "type": "functional, organism-based", "conditions": "336 h"}, "[4]": {"assay": "Cytotoxicity against African green monkey Vero cells incubated for 48 hrs", "type": "toxicity, cell-based", "conditions": "African green monkey (Chlorocebus sabaeus)"}, "[5]": {"assay": "Selectivity index, ratio of IC50 for cytotoxicity against African green monkey Vero cells to IC50 for antileishmanial activity against Leishmania donovani S1 promastigotes assessed as parasite growth inhibition", "type": "toxicity, cell-based", "conditions": "read-out: Ratio IC50"}, "[6]": {"assay": "Selectivity index, ratio of IC50 for cytotoxicity against African green monkey Vero cells to IC50 for antiparasitic activity against Trypanosoma brucei assessed as parasite growth inhibition", "type": "toxicity, cell-based", "conditions": "read-out: Ratio IC50"}, "[7]": {"assay": "Selectivity index, ratio of IC50 for cytotoxicity against African green monkey Vero cells to IC50 for antiparasitic activity against Trypanosoma cruzi epimastigotes assessed as parasite growth inhibition", "type": "toxicity, cell-based", "conditions": "read-out: Ratio IC50"}, "[8]": {"assay": "Cytotoxicity against human MRC5 cells incubated for 7 days by MTT colorimetric assay", "type": "toxicity, cell-based"}},
  "note": "pIC50: −log10 of the molar value.",
  "data": [
    {"smiles": "CCCCCCCCn1cc(CNC[C@](C)(O)[C@H]2CC[C@H]3[C@@H]4CC=C5C[C@@H](O)CC[C@]5(C)[C@H]4CC[C@@]32C)nn1", "values": [
      {"measurement": "pIC50", "setting": "[1]", "result": 5.84},
      {"measurement": "pIC50", "setting": "[2]", "result": 6.20},
      {"measurement": "pIC50", "setting": "[3]", "result": 5.09},
      {"measurement": "IC50 at 48 h", "setting": "[4]", "result": "> 9.24", "unit": "µM"},
      {"measurement": "selectivity ratio", "setting": "[5]", "result": "> 6.33"},
      {"measurement": "selectivity ratio", "setting": "[6]", "result": "> 14.7"},
      {"measurement": "selectivity ratio", "setting": "[7]", "result": "> 1.14"}
    ]},
    {"smiles": "C[C@]12CC[C@H]3[C@@H](CC=C4C[C@@H](O)CC[C@@]43C)[C@@H]1CC[C@@H]2[C@@](C)(O)CNCc1cn(Cc2ccccc2)nn1", "values": [
      {"measurement": "pIC50", "setting": "[1]", "result": 5.71},
      {"measurement": "pIC50", "setting": "[2]", "result": 6.92},
      {"measurement": "pIC50", "setting": "[3]", "result": 5.08},
      {"measurement": "IC50 at 48 h", "setting": "[4]", "result": "> 9.64", "unit": "µM"},
      {"measurement": "selectivity ratio", "setting": "[5]", "result": "> 4.95"},
      {"measurement": "selectivity ratio", "setting": "[6]", "result": "> 80.3"},
      {"measurement": "selectivity ratio", "setting": "[7]", "result": "> 1.16"}
    ]},
    {"smiles": "CCOC(=O)Cn1cc(CN[C@@H](C)[C@H]2CC[C@H]3[C@@H]4CC=C5C[C@@H](OC(C)=O)CC[C@]5(C)[C@H]4CC[C@]23C)nn1", "values": [
      {"measurement": "pIC50", "setting": "[1]", "result": 5.31},
      {"measurement": "pIC50", "setting": "[2]", "result": 6.18},
      {"measurement": "pIC50", "setting": "[3]", "result": 5.11},
      {"measurement": "IC50 at 48 h", "setting": "[4]", "result": "> 9.49", "unit": "µM"},
      {"measurement": "selectivity ratio", "setting": "[5]", "result": "> 1.94"},
      {"measurement": "selectivity ratio", "setting": "[6]", "result": "> 14.4"},
      {"measurement": "selectivity ratio", "setting": "[7]", "result": "> 1.22"}
    ]},
    {"smiles": "CC(=O)O[C@H]1CC[C@@]2(C)C(=CC[C@H]3[C@@H]4CC[C@H]([C@H](C)NCc5cn(CCCc6ccccc6)nn5)[C@@]4(C)CC[C@@H]32)C1", "values": [
      {"measurement": "pIC50", "setting": "[1]", "result": 5.52},
      {"measurement": "pIC50", "setting": "[2]", "result": 6.70},
      {"measurement": "pIC50", "setting": "[3]", "result": 5.20},
      {"measurement": "IC50 at 48 h", "setting": "[4]", "result": "> 8.95", "unit": "µM"},
      {"measurement": "selectivity ratio", "setting": "[5]", "result": "> 2.99"},
      {"measurement": "selectivity ratio", "setting": "[6]", "result": "> 44.7"},
      {"measurement": "selectivity ratio", "setting": "[7]", "result": "> 1.42"}
    ]},
    {"smiles": "CC(C)=CCC/C(C)=C/Cn1cc(CNC[C@](C)(O)[C@H]2CC[C@H]3[C@@H]4CC=C5C[C@@H](O)CC[C@]5(C)[C@H]4CC[C@@]32C)nn1", "values": [
      {"measurement": "pIC50", "setting": "[1]", "result": 6.11},
      {"measurement": "pIC50", "setting": "[2]", "result": 6.19},
      {"measurement": "pIC50", "setting": "[3]", "result": 5.05},
      {"measurement": "IC50 at 48 h", "setting": "[4]", "result": "> 8.85", "unit": "µM"},
      {"measurement": "selectivity ratio", "setting": "[5]", "result": "> 11.4"},
      {"measurement": "selectivity ratio", "setting": "[6]", "result": "> 13.6"},
      {"measurement": "selectivity ratio", "setting": "[7]", "result": "> 0.98"}
    ]},
    {"smiles": "Nc1nc(N)nc(Nc2ccc([As]3SCC(CO)S3)cc2)n1", "note": "(configuration not stated) [MELARSOPROL]", "values": [
      {"measurement": "selectivity ratio", "setting": "[6]", "result": 62.5},
      {"measurement": "IC50 at 7 days", "setting": "[8]", "result": 12.5, "unit": "µM"}
    ]}
  ]
}
